Measurements reported in ChEMBL document CHEMBL1201862, “PubChem BioAssay data set” (2004).
Active and inactive are the calls of the source.

How the values were obtained:
[1] = target: T1, Replicative DNA helicase DnaB (Mycobacterium tuberculosis, UniProt P9WMR3); assay: DnaB intein splicing inhibitors, dose response, biochemical, cell-free fluorescence (AID 449749); assay type: functional
T1 sequence (P9WMR3 whole entry): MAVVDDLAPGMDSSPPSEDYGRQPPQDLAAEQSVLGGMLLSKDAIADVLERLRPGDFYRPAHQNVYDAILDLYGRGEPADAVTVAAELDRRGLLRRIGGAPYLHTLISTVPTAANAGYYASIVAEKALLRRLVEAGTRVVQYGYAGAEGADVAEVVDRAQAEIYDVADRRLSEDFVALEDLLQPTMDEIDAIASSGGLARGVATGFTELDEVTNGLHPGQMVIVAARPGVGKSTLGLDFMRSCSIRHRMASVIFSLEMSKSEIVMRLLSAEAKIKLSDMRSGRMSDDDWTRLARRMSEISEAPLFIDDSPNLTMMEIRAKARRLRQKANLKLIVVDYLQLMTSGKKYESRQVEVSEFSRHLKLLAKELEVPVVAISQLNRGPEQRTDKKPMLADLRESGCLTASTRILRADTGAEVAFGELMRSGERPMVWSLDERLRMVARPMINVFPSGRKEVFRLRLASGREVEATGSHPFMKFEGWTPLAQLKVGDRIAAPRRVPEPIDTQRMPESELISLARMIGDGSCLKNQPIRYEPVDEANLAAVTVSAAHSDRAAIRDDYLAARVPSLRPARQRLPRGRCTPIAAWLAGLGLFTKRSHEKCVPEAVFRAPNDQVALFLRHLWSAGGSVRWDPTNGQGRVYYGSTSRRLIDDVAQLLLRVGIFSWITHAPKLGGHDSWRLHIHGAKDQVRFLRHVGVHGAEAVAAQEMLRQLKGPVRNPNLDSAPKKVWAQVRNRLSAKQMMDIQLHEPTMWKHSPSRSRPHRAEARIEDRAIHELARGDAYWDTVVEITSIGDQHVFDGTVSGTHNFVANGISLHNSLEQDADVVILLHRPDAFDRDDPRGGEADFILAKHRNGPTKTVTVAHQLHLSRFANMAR

Protein RecA = target: T2, Protein RecA (Mycobacterium tuberculosis, UniProt P9WHJ3); assay: Fluorescence Cell-Free Homogeneous Dose Retest to Identify Inhibitors of RecA-Intein Splicing Activity. [Related pubchem assays (depositor defined):AID2097, AID2223, AID489010, AID492950]; assay type: functional
T2 sequence (P9WHJ3 whole entry): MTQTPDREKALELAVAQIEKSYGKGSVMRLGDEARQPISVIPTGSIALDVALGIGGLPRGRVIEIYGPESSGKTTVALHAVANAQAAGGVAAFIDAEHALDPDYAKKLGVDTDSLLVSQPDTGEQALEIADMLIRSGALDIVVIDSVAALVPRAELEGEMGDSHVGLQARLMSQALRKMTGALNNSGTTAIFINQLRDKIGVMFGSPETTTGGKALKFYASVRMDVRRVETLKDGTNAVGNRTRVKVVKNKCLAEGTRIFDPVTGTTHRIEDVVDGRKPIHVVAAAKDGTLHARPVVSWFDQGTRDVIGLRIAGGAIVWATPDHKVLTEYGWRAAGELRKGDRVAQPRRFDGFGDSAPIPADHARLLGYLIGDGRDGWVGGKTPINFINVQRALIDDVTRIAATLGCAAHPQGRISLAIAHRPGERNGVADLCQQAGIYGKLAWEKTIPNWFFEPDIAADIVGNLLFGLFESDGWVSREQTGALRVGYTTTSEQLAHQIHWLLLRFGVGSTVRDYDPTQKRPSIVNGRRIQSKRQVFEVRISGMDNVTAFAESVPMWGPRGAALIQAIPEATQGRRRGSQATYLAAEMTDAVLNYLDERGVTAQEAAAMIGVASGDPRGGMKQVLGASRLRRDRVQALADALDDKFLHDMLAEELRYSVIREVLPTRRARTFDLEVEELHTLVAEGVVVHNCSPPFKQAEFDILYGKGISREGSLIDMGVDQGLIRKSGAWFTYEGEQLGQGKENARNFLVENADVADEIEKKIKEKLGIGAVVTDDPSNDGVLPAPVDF

[2] = target: T3, Apoptotic protease-activating factor 1 (Homo sapiens, UniProt O14727); assay type: functional
T3 sequence (O14727 whole entry): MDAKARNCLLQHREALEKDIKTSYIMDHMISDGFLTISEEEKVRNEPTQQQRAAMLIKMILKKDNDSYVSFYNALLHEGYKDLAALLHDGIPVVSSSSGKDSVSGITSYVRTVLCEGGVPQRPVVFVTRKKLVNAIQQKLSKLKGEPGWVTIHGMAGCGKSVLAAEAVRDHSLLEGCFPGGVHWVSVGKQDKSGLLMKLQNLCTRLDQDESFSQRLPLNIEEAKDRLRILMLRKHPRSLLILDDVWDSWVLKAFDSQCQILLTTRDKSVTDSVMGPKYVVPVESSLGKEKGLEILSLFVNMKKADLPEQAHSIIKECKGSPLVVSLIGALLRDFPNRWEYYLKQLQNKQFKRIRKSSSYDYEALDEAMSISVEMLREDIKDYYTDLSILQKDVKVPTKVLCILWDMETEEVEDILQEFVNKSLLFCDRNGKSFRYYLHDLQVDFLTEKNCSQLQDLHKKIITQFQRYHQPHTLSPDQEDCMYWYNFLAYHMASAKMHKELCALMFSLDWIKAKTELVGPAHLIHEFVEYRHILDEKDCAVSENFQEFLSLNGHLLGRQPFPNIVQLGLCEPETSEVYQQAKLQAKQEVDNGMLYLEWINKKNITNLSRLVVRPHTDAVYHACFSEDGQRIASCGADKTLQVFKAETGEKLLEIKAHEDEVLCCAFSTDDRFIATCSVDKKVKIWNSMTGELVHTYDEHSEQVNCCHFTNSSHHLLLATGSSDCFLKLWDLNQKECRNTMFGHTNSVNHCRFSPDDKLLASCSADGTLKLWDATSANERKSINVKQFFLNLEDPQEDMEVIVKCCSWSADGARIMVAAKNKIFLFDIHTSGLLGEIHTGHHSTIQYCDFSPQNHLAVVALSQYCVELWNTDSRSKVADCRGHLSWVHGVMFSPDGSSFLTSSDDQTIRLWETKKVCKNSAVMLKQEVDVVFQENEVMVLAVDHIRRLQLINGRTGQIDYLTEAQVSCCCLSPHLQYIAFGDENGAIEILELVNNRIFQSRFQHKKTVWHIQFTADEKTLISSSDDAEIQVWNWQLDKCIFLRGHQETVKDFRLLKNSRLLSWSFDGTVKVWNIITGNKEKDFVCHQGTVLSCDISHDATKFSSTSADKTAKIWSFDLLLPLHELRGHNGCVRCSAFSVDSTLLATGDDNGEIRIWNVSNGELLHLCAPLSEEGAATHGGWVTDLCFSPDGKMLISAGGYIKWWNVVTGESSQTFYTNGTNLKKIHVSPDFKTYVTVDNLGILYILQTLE

[3] = target: T4, Mitochondrial peptide methionine sulfoxide reductase (Bos taurus, UniProt P54149); assay type: functional;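 further: absorbance read-out, biochemical high-throughput dose-response screen for MsrA inhibitors, confirmatory; recombinant bovine MsrA coupled to E. coli TrxB with NADPH and selenocystamine; potency is for inhibitors of MsrA activity on DMSO substrate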
T4 sequence (P54149 whole entry): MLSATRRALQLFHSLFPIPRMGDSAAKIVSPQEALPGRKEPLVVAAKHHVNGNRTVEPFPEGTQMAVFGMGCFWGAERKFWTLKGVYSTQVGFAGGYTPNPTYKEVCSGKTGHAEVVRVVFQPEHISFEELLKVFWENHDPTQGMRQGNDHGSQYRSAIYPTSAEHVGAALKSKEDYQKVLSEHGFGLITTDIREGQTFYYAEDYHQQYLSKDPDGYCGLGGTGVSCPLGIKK

Beta-galactosidase = Beta-galactosidase (Escherichia coli, UniProt Q8VNN2); assay: Dose response counterscreen for EBI2 assay utilizing the enzyme, b-galactosidase.; assay type: functional
Sequence of Beta-galactosidase (Q8VNN2 whole entry): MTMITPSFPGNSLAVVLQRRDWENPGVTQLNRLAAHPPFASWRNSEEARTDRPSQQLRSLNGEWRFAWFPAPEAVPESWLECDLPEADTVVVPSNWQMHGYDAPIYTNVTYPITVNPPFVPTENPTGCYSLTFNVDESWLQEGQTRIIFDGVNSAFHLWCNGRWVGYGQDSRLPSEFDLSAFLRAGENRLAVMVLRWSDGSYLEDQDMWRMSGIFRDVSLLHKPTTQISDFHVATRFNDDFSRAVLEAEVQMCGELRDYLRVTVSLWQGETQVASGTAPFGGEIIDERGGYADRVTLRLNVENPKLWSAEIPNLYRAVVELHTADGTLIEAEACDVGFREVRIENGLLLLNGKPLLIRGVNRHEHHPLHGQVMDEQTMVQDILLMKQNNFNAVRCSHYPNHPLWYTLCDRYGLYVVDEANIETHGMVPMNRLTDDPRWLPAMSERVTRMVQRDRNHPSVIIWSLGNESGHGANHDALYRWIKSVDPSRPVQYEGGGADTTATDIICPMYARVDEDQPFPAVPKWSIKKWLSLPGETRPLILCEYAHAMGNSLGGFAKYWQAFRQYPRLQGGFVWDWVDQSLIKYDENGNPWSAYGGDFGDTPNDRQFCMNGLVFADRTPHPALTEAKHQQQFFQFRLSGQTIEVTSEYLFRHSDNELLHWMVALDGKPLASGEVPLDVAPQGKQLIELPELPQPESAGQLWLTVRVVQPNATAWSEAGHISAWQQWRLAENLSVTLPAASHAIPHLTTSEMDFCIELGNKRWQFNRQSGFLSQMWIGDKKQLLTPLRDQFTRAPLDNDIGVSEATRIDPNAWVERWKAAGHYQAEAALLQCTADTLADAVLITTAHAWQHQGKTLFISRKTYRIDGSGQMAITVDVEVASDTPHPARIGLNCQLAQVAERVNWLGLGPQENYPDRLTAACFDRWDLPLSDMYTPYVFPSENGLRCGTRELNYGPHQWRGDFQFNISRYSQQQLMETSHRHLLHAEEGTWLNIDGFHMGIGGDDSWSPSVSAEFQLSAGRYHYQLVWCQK

Protein Wnt-3a = Protein Wnt-3a (Mus musculus, UniProt P27467); assay: SAR analysis of small molecule antagonists of Gli-SUFU in a Wnt3a luminescent reporter assay.; assay type: functional
Sequence of Protein Wnt-3a (P27467 whole entry): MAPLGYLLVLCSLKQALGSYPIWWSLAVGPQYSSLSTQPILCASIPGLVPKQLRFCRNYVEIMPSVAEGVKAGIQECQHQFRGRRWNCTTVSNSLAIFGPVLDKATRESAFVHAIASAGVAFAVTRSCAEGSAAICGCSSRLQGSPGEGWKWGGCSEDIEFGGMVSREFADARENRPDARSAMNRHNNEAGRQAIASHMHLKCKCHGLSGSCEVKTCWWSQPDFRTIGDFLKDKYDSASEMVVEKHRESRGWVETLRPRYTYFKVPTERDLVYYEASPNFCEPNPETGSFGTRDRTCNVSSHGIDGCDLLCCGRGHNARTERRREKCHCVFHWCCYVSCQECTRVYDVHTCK

[4] = target: T5, DNA repair protein RAD52 homolog (Homo sapiens, UniProt P43351); assay type: functional, biochemical
T5 sequence (P43351 whole entry): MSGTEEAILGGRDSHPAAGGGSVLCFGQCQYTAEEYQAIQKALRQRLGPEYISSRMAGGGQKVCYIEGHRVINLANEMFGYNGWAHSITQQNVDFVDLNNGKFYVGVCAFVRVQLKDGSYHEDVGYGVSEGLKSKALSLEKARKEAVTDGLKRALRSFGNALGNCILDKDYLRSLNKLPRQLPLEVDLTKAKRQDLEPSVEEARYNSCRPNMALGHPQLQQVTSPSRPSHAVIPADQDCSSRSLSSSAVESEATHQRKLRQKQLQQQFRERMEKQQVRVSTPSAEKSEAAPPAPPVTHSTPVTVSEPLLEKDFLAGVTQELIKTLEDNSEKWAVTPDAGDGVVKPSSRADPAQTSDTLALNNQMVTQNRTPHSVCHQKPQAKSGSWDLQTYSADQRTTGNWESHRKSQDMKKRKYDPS

cells [5] = assay type: functional, cell-based
[6] = target: T6, Trace amine-associated receptor 1 (Homo sapiens, UniProt Q96RJ0); assay: Fluorescence-based cell-based high throughput dose response assay to identify agonists of the human trace amine associated receptor 1 (TAAR1).; assay type: functional
T6 sequence (Q96RJ0 whole entry): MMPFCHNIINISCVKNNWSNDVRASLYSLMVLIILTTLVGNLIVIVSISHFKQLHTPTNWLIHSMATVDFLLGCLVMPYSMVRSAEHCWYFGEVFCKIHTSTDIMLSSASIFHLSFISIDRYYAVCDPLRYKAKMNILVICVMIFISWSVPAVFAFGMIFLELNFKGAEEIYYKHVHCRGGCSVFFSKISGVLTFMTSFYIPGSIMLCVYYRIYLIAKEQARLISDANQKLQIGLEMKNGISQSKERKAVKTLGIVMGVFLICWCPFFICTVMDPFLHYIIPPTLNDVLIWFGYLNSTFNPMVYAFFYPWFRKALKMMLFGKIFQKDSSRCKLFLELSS

[7] = target: T6, Trace amine-associated receptor 1; assay: Counterscreen for agonists of the human trace amine associated receptor 1 (hTAAR1): Fluorescence-based cell-based high throughput dose response assay to identify hTAAR1 agonist that also desensitize TAAR1 receptor response.; assay type: functional
cells [8] = assay type: functional, cell-based; remark: listed apart in the source
[9] = target: T7, Heat shock factor protein 1 (Mus musculus, UniProt P38532); assay: enhancement of HSF1-driven luciferase signal – cell-based, NIH3T3, luminescence, dose retest, confirmation (AID 435004); assay type: functional;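 further: stress induced by proteasome inhibitor MG132 added 30 min after compound; luciferase reporter driven by HSF1 response element in NIH3T3 cells; actives raise luminescence as potentiators of the MG132 stress response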
T7 sequence (P38532 whole entry): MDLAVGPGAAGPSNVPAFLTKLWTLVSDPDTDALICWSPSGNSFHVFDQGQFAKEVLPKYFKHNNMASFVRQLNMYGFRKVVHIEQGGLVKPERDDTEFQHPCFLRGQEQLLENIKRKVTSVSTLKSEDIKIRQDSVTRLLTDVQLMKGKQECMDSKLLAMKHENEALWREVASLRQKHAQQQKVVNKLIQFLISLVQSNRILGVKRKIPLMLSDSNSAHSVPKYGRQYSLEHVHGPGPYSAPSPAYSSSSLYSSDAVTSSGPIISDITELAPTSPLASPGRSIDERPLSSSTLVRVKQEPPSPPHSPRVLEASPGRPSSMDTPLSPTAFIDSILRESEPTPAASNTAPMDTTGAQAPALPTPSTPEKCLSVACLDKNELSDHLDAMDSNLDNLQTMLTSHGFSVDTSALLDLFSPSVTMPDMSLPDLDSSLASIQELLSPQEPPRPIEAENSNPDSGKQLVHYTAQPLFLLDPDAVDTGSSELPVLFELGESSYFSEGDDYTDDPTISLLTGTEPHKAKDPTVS

Structure (SMILES): O=C(O)c1cccc(NC2=C(n3nnc4ccccc43)C(=O)c3ccccc3C2=O)c1
- AC50 [1]: 2.53 µM (active)
- EC50 (Protein RecA): 2.26 µM (active)
- IC50 [2]: 10.9 µM (active)
- IC50 [3]: 31.4 µM (inactive)

Structure (SMILES): CCOC(=O)N1CCN(C(=O)c2cc3c(s2)-c2c(C)cccc2OC3)CC1
- IC50 (Beta-galactosidase): > 80 µM (inactive)

Structure (SMILES): O=C(Nc1cc(N2CCCCC2)ncn1)c1ccsc1
- IC50 (Protein Wnt-3a): > 21.8 µM (inactive)

Structure (SMILES): Cc1nc(NC(=O)c2ccccc2)cc(N2CCCC2)n1
- IC50 (Protein Wnt-3a): > 21.8 µM (inactive)

Structure (SMILES): CCCCCCCCCCCCCCCC[n+]1ccccc1
- AC50 [4]: 4.21 µM (active)

Structure (SMILES): CCn1c(C)nc2cc(C(=O)NNC(=O)Nc3ccc(Cl)cc3)ccc21
- IC50 (cells [5]): > 29.9 µM (inactive)
- EC50 [6]: > 29.9 µM (inactive)
- IC50 [7]: > 29.9 µM (inactive)
- EC50 (cells [8]): > 29.9 µM (inactive)

Structure (SMILES): Cn1c(=O)c(=O)n(C)c2cc(S(=O)(=O)NCCc3ccccc3)ccc21
- IC50 (cells [5]): > 29.9 µM (inactive)
- EC50 [6]: 2.21 µM (active)
- IC50 [7]: 8.95 µM (active)
- EC50 (cells [8]): > 29.9 µM (inactive)

Structure (SMILES): CCN(CC)c1cc(NC(=O)c2cccc(F)c2)ncn1
- IC50 (Protein Wnt-3a): > 21.8 µM (inactive)

Structure (SMILES): Cc1ccc(Nc2ccc(C(=O)NC3CCCCC3)cn2)cc1
- IC50 (Beta-galactosidase): > 80 µM (inactive)

Structure (SMILES): O=C(CSc1ccc(Cl)cc1)N1CCN(c2c(Cl)cccc2[N+](=O)[O-])CC1
- IC50 (Beta-galactosidase): > 80 µM (inactive)
- EC50 [9]: 14.8 µM (active)

Structure (SMILES): CC(=NCCc1ccccc1)C1=C(O)OCC1
- IC50 (cells [5]): > 30 µM (inactive)
- EC50 [6]: 0.65 µM (active)
- IC50 [7]: 2.35 µM (active)
- EC50 (cells [8]): > 30 µM (inactive)
